Values quoted from earlier work in US7732404B2 (priority 1999, dated 2010).

System: mice
Details: mouse, in vivo, po

CCOC(=O)C(C)O (stereo not shown) [Ethyl lactate, 2-hydroxypropanoic acid ethyl ester]
LD50: higher than 5 g/kg
